Experiments:
[1] = Urine odor panel ranking, dye powders in urine, 1.6 millimolar (Example 6); design: species or system human; conditions: 1.6 millimolar dye in urine, 24 hours, 37° C.
Description: (§1) Qualitative odor reduction was also assessed against common odors, such as garlic and urine. Specifically, panelists assessed odorant-containing jars by carefully unscrewing, and then raising the lid of each jar in a controlled manner, such that the odor was not diluted by the ambient air. The jars were wrapped and coded to ensure that the sample identity was unknown.
The effectiveness of various dyes in reducing urine odor was compared. The dyes chosen for this example were powders of Acid Blue 25, Acid Blue 45, Acid Blue 129, FD&C Blue No. 1 (a triarylmethane dye), Acid Green 27, Acid Green 41, and Mordant Violet 5 (Alizarin Violet 3R) (commercially available from Sigma-Aldrich Chemical Co., Inc. of St. Louis, Mo.), as well as D&C Green No. 5 (commercially available from Noveon Hilton Davis, Inc. of Cincinnati, Ohio). Human female urine was initially collected and pooled by a nurse on staff at Kimberly-Clark Corporation. […] Powders of the aforementioned dyes were weighed and placed into the mason jars containing 50 milliliters of urine so that the final concentration of the dye powder was 1.6 millimolar (equivalent to 0.1 wt. %). […] A score of “10” was assigned to the most malodorous jar and a score of “1” was assigned to the least malodorous jar.

[2] = Urine odor and secondary odor panel ranking, dye powders in urine, 8 millimolar (Example 7); design: species or system human; conditions: for Secondary Odor Ranking: scale 1 to 5, 5 extremely unpleasant, individual panelists' scores; for Average Urine Odor Ranking (with statistical corrections), Avg. Score: ignoring statistical anomalies
Description: as §1
The effectiveness of various dyes in reducing urine odor was compared. […] Human female urine was initially collected and pooled by a nurse on staff at Kimberly-Clark Corporation. The pooled urine was added to mason jars in 50-milliliter aliquots using an automated pipette aid. Powders of the aforementioned dyes (commercially available from Sigma-Aldrich Chemical Co., Inc. of St. Louis, Mo. and Noveon Hilton Davis, Inc. of Cincinnati, Ohio) were weighed and placed into the mason jars containing 50 milliliters of urine so that the final concentration of the dye powder was 8 millimolar (equivalent to 0.5 wt. %). The mason jars were placed in an incubator overnight at 37° C.
To aid in the assessment of the dyes, the mason jars were divided into two groups for a morning assessment, and the best of both groups were compared in an afternoon assessment (after a total of 24 hours). In addition to ranking the jars from least to most malodorous (on a scale from 1 to 7, with 7 being the most malodors), panelists were also asked to judge whether there were secondary (non-urine) odors present and, if so, the extent that the secondary odors were unpleasant (on a scale from 1 to 5, with 5 being extremely unpleasant).
In this assessment, panelists were given instructions to rank the least malodorous jar as “1” and the most malodorous jar as “10,” remaining free to rank the other jars between 2-9.

[3] = Redox potential (redox potentiometry); type: physicochemical; conditions: compared with hydrogen (set at 0)
Description: The ability of quinone compounds to accept electrons from another substance (i.e., be reduced) may be quantified using a technique known as redox potentiometry. Redox potentiometry is a technique that measures (in volts) the affinity of a substance for electrons—its electronegativity—compared with hydrogen (which is set at 0). Substances more strongly electronegative than (i.e., capable of oxidizing) hydrogen have positive redox potentials. Substances less electronegative than (i.e., capable of reducing) hydrogen have negative redox potentials. The greater the difference between the redox potentials of two substances (ΔE), the greater the vigor with which electrons will flow spontaneously from the less positive to the more positive (more electronegative) substance. As is well known in the art, redox potential may be measured using any of a variety of commercially available meters, such as an Oxidation Reduction Potential (ORP) tester commercially available from Hanna Instruments, Inc. of Woonsocket, R.I. The redox potential of the quinone compounds may, for instance, be less than about −50 millivolts (mV), in some embodiments less than about −150 mV, in some embodiments less than about −300 mV, and in some embodiments, less than about −500 mV. Although not always the case, the redox potential may vary based on the number and location of functional groups, such as sulfonic acid, on the quinone structure. For example, 2-sulfonic acid anthraquinone has a redox potential of −380 mV; 2,6-disulfonic acid anthraquinone has a redox potential of −325 mV; and 2,7-disulfonic acid anthraquinone has a redox potential of −313 mV. Likewise, 2-sulfonic acid naphthaquinone has a redox potential of −60 mV. The use of other functional groups may also have an affect on the ultimate redox potential of the compound. For example, Acid Blue 25, which also contains amino- and aramid functional groups, has a redox potential of −605 mV.

[4] = Urine odor panel ranking, dye-coated Poise pads without SN-AK (Example 8); design: species or system human
Description: as §1
Specifically, Acid Green 25, Acid Green 41, Acid Blue 129, and D&C Green No. 5 were tested. Powders of the aforementioned dyes (commercially available from Sigma-Aldrich Chemical Co., Inc. of St. Louis, Mo. and Noveon Hilton Davis, Inc. of Cincinnati, Ohio) were dissolved in water so that the concentration of the dye was 8 millimolar (equivalent to 0.5 wt. %). Samples of tissue wrap were created by cutting 9″×6″ sheets from a roll of tissue (1 ply white cellulose wrap sheet having a basis weight of 16.6 grams per square meter) were weighed, oven-dried overnight at 90° C., and weighed again the next day to calculate the amount of residual water in each wrap. The wraps were then dipped into a respective dye solution and hung to dry overnight, after which they were weighed again. The treated wraps were then rinsed in deionized water to remove any unbound dye and hung again to dry overnight. After weighing the treated wraps, they were once again oven-dried overnight at 90° C. and weighed to determine the dry add-on percentages ([…]). The add-on percentage for each sample was approximately 1.6 wt. %.
Two different sets of Poise® pads (commercially available from Kimberly-Clark Corp.) were tested. The first set of dye-coated tissue wraps (without SN-AK) was inserted around the pledgette area of the Poise® pads. The Poise® pads were cut open and the tissue wrap surrounding the pledgette carefully removed and replaced with dye-coated tissue wrap. The second set of dye-coated tissue wraps (without SN-AK) used dye coatings on the top of the pad (rather than inside). These pads were constructed by spreading the solution over the top of each pad. To prevent the superabsorbent area of the pad from soaking up the solution, the pads were cut open prior to coating and a layer of plastic wrap was placed between the top layer of the pad and the superabsorbent core. A pad that was cut open, but coated only with water on top, was used as a control. All pads were dried at room temperature overnight before placing them in mason jars for testing. For control purposes, a Poise® pad was also tested that was cut open, but retained its original tissue wrap. In addition, Serenity® Night & Day™ incontinence pads, which are commercially available from SCA Incontinence Care of Eddystone, Pa. and said to employ OdaSorb Plus™ to reduce odor, were also used for comparison.
Fresh human female urine was then pooled, and 50-milliliter aliquots were applied to the pads using a pipette. The mason jars were placed in a 37° C. incubator overnight for assessment the next day. […] Panelists were again asked to rank any secondary odors for unpleasantness on a scale of 1-5.

[5] = Urine odor panel ranking, dye powders in urine, 8 millimolar (Example 5); design: species or system human; conditions: 8 millimolar dye in urine
Description: as §1, with “unknown. The effectiveness of various quinone dyes in reducing urine odor was compared. Human female urine was initially collected and pooled by a nurse on staff at Kimberly-Clark Corporation.” for “unknown.”

[6] = First Grouping, morning assessment, 8 millimolar, 7 most malodorous
[7] = First Grouping, scale 1 to 7, 7 most malodorous
[8] = After 24 Hours, top performers of both groupings, 1 least, 10 most malodorous
[9] = after 24 hours, top performers, 1 least, 10 most malodorous
[10] = 1st set (tissue-wrap coating), After 30 Hours
[11] = Second Grouping, morning assessment, 8 millimolar, higher = more malodorous
[12] = After 6 Hours, 10 most, 1 least malodorous
[13] = After 24 Hours, 10 most, 1 least malodorous

SMILES: Cc1ccc(Nc2cccc3c2C(=O)c2cccc(Nc4ccc(C)cc4S(=O)(=O)[O-])c2C3=O)c(S(=O)(=O)[O-])c1.[Na+].[Na+]
- urine odor reduction (panel) [1]: did not perform as well in reducing odor as D&C Green No. 5
- Urine Odor Ranking (number of panelists): ranking 4 [2, 6]: 1 number of panelists
- Urine Odor Ranking (number of panelists): ranking 6 [2, 6]: 3 number of panelists
- Urine Odor Ranking (number of panelists): ranking 7 [2, 6]: 1 number of panelists
- Secondary Odor Ranking ([2]; First Grouping): 1
- Average Urine Odor Ranking, Avg. Score [2, 7]: 5.8

SMILES: O=C1c2ccc(S(=O)(=O)O)cc2C(=O)c2ccc(S(=O)(=O)O)cc21 [2,6-disulfonic acid anthraquinone]
- redox potential [3]: −325 mV

SMILES: O=C1c2ccc(S(=O)(=O)O)cc2C(=O)c2cc(S(=O)(=O)O)ccc21 [2,7-disulfonic acid anthraquinone]
- redox potential [3]: −313 mV

SMILES: O=C1c2ccccc2C(=O)c2cc(S(=O)(=O)O)ccc21 [2-sulfonic acid anthraquinone]
- redox potential [3]: −380 mV

SMILES: O=C1C=C(S(=O)(=O)O)C(=O)c2ccccc21 [2-sulfonic acid naphthaquinone]
- redox potential [3]: −60 mV

SMILES: Nc1c(S(=O)(=O)[O-])cc(Nc2ccccc2)c2c1C(=O)c1ccccc1C2=O.[Na+] [Acid Blue 25]
- redox potential [3]: −605 mV
- Urine Odor Ranking (number of panelists): ranking 4 [2, 8]: 1 number of panelists
- Urine Odor Ranking (number of panelists): ranking 7 [2, 8]: 1 number of panelists
- Urine Odor Ranking (number of panelists): ranking 9 [2, 8]: 2 number of panelists
- Urine Odor Ranking (number of panelists): ranking 10 [2, 8]: 1 number of panelists
- Secondary Odor Ranking ([2]; After 24 Hours): 4
- Urine Odor Ranking (number of panelists): ranking 1 [2, 6]: 1 number of panelists
- Urine Odor Ranking (number of panelists): ranking 2 [2, 6]: 1 number of panelists
- Urine Odor Ranking (number of panelists): ranking 3 [2, 6]: 1 number of panelists
- Urine Odor Ranking (number of panelists): ranking 4 [2, 6]: 1 number of panelists
- Urine Odor Ranking (number of panelists): ranking 5 [2, 6]: 1 number of panelists
- Secondary Odor Ranking ([2]; First Grouping): 2
- Average Urine Odor Ranking, Avg. Score [2, 7]: 3.0
- Average Urine Odor Ranking, Avg. Score [2, 9]: 6.8
- Average Urine Odor Ranking (with statistical corrections), Avg. Score ([2]; after 24 hours, top performers): 8.8
- urine odor reduction (panel) ([2]; first grouping): functioned effectively to reduce odor

SMILES: Cc1cc(C)c(Nc2cc(S(=O)(=O)[O-])c(N)c3c2C(=O)c2ccccc2C3=O)c(C)c1.[Na+] [Acid Blue 129]
- Urine Odor Ranking (number of panelists): ranking 1 [4, 10]: 1 number of panelists
- Urine Odor Ranking (number of panelists): ranking 3 [4, 10]: 1 number of panelists
- Urine Odor Ranking (number of panelists): ranking 4 [4, 10]: 2 number of panelists
- Average Urine Odor Ranking, Avg. Score ([4]; 1st set (tissue-wrap coating), final pooled assessment): 3.00
- urine odor reduction (panel), assessment within set ([4]; first set of pads (dye-coated tissue wrap around pledgette), overnight 37° C.): performed best for the first set of pads
- overall urine odor control performance (panel) ([4]; tissue-wrap coating, final pooled assessment): performed very well
- Urine Odor Ranking (number of panelists): ranking 1 [2, 8]: 1 number of panelists
- Urine Odor Ranking (number of panelists): ranking 3 [2, 8]: 1 number of panelists
- Urine Odor Ranking (number of panelists): ranking 4 [2, 8]: 1 number of panelists
- Urine Odor Ranking (number of panelists): ranking 5 [2, 8]: 1 number of panelists
- Urine Odor Ranking (number of panelists): ranking 6 [2, 8]: 1 number of panelists
- Average Urine Odor Ranking, Avg. Score ([2]; Second Grouping): 1.8
- Urine Odor Ranking (number of panelists): ranking 1 [2, 11]: 3 number of panelists
- Urine Odor Ranking (number of panelists): ranking 3 [2, 11]: 2 number of panelists
- urine odor reduction (panel) ([2]; after 24 hours, top performers of both groupings): achieved the best odor reduction
- Average Urine Odor Ranking, Avg. Score [2, 9]: 3.8
- Average Urine Odor Ranking (with statistical corrections), Avg. Score ([2]; after 24 hours, top performers): 3.8
- urine malodor reduction (panel) ([5]; 6 and 24 hours): functioned effectively in reducing urine malodor
- Avg. Ranking (odor) [5, 12]: 1.6
- Ranking (number of panelists): ranking 1 [5, 12]: 4 number of panelists
- Ranking (number of panelists): ranking 4 [5, 12]: 1 number of panelists
- Avg. Ranking (odor) [5, 13]: 1.3
- Ranking (number of panelists): ranking 1 [5, 13]: 5 number of panelists
- Ranking (number of panelists): ranking 3 [5, 13]: 1 number of panelists

— US8409618B2, “Odor-reducing quinone compounds” (Kimberly-Clark Worldwide, Inc., priority 2002, dated 2013)
